{"source": "patent US9376700B2", "about": "“Methods of modifying N-termini of a peptide or protein using transferases” (The Trustees of the University of Pennsylvania, priority 2012, dated 2016)", "key": {"[1]": {"target": "T1, E. coli aminoacyl tRNA transferase (AaT) (Escherichia coli, UniProt P0A8P1)", "T1 construct": "made in house; host or cells: E. coli BL21-Gold (DE3), plasmid pEG6, Ni-NTA purified", "T1 sequence (P0A8P1 whole entry)": "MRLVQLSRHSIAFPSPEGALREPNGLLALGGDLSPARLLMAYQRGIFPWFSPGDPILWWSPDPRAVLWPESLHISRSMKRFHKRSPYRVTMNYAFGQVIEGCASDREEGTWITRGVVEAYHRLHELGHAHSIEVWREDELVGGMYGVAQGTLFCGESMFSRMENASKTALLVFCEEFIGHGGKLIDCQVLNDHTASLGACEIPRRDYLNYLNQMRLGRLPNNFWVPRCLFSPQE", "experiment": "AaT-catalyzed α-casein N-terminal modification (Edman degradation, tryptic digest MALDI MS)", "type": "biochemical", "conditions": "Phe donor, additional dose at 4 h, overnight", "description": "HEPES pH 8.0, 1.50 mM KO, 10 mM MgCl2) and AaT (0.05 mg). The reaction mixture was incubated at 37° C. for 12 h, AaT was removed using Ni^2+ resin (Ni-NTA Superflow, Qiagen), and then buffer exchanged four times into phosphate buffered saline (PBS, 12 mM NaH2PO4, 50 mM NaCl, 4.7 mM KCl, pH 8.0) by Spectra/Por 1 dialysis tubing (Spectrum Laboratories; Rancho Dominguez, Calif.). Azf-modified α-casein was used directly after buffer exchange into PBS. Aliquots (1 nmol) of α-casein were diluted into PBS (22 μL) containing either fluorescein-alkyne (FlAlk, 91 μM) or propargylamine (Alk, 227 μM) for copper-catalyzed azide-alkyne cycloaddition (CuAAC). […] Reactions were boiled with gel loading dye LDS (Pierce; Rockford, Ill.) for 10 min at 95° C. and analyzed by SDS-PAGE. Fluorescence images were obtained with a Geldoc (BioRAD; Hercules, Calif.) using an excitation wavelength of 302 nm for detection of fluorescein. α-Casein was also directly visualized by Coomassie Brilliant Blue staining.\nα-Casein-Azf (33 or α-casein (33 μg) was digested with sequencing grade modified Trypsin (0.6 μg) in 27 μL of 25 mM ammonium bicarbonate pH 7.5 (freshly prepared). Digestions were carried out at 37° C. for 14 h. Trypsin digest aliquots (1 μL) were combined with α-cyano-4-hydroxycinnamic acid (1 μL of a saturated solution in 1:1 H2O/CH3CN with 1% TFA) and analyzed by MALDI MS. […]"}, "[2]": {"experiment": "HPLC analysis of donor hydrolysis in mock LysAlaAcm reactions without enzyme", "type": "physicochemical", "conditions": "mock reaction without AaT, AaT Ligation Buffer pH 8.0, 37° C., after 4 h", "description": "The amino acid analog donor (4a-4z) was suspected to be hydrolytically unstable and was tested in mock LysAlaAcm reactions without enzyme present and then analyzed by HPLC. The mock LysAlaAcm reactions were performed as described in the LysAlaAcm Ligation Assay section; however, the AaT solution was replaced with water. Phe-A solutions were analyzed at 30 min, 1 h, and 4 h. Immediately following the reaction, the sample was diluted to 1,200 μL and injected onto the C18 HPLC column using Gradient 1. […] Additionally, 1 mM A and 1 mM Phe were injected on the HPLC to serve as standards to verify retention times. Note that the relative concentrations of 2′ and 3′ Phe-A would be different in an actual reaction where the 3′ Phe-A is preferentially consumed by AaT in the transfer reaction (Watanabe et al., 2007, Nature 449:867-871). The change in 2′:3′ ratio between 0 h and 30 min probably reflected the higher pH of the 30 min data (Taiji et al., 1983, Biochemistry 22:3220-3225)."}, "[3]": {"target": "T2, E. coli aminoacyl transferase (AaT) (Escherichia coli, UniProt P0A8P1)", "T2 sequence (P0A8P1 whole entry)": "as above", "quoted_text": "The LysAlaAcm ligation assay was used to analyze the kinetics of AaT with substrate 4a. The ligation assay was modified for ease of analysis as follows: The total reaction volume was scaled up to 590 μL and all reagents were maintained at the same concentrations as mentioned above, Five concentrations of 4a were monitored for a total reaction time of 30 min, with concentrations ranging from 0.05 to 1 mM.\nEach 30 min kinetic experiment was done in triplicate with a total of fourteen 40 μL aliquots for all substrate concentrations.\nTherefore, the reaction was characterized in terms of the Michaelis-Menten kinetic scheme in Equation 2.\nTo determine initial velocities, the primary kinetic data is fit to the hyperbolic Equation 3, which, though phenomenological, produces a high quality fit (R>0.99 for all 5 data sets). Data from the first two minutes were fit to a linear expression (Equation 4). A non-zero intercept is employed for improved quality of fit; this can be justified in terms of a rapid burst phase not captured in the 1 min resolution of this assay.\nThe initial velocities were then plotted as a function of Phe-A donor concentration and fit to Equation 5 to obtain kcat and KM values, where KM=(k−1+kcat)/k1 as depicted in FIG. 3B.\nTo characterize the enzymatic activity of AaT toward the present acyl adenosyl substrates, an HPLC assay was used to determine initial reaction rates to be fit to a standard Michaelis-Menten kinetic model."}, "[4]": {"target": "T2, E. coli aminoacyl transferase (AaT)", "experiment": "LysAlaAcm ligation assay: AaT-catalyzed transfer from aminoacyl adenosine donor to LysAlaAcm, HPLC at 325 nm", "type": "biochemical", "set-up": "made in house; host or cells: E. coli BL21-Gold (DE3), plasmid pEG6, Ni-NTA purified", "conditions": "for Ligated Product Yield (%): 4 h", "description": "Each ligation reaction, 125 μL total volume, contained the following reagents: aminoacyl adenosine donor (1 mM), recombinant His10-tagged E. coli aminoacyl transferase (2.26 μM), and LysAlaAcm (100 μM) in the AaT Ligation Buffer (50 mM HEPES pH 8.0, 150 mm KCl, 10 mM MgCl2). The reaction mixtures were incubated at 37° C. for four hours and quenched with 1% acetic acid. The proteins were extracted from the reactions via acetone precipitation. The reactions were precipitated using 4× reaction volume of acetone and cooled at −20° C. for 1 h. Next, the reactions were centrifuged at 13,200 rpm at 4° C. for 20 min to separate the reaction from precipitated protein. The supernatant was transferred to fresh 1.5 mL centrifuge tubes and allowed for acetone evaporation overnight at room temperature. After acetone evaporation, the supernatant was dried in a Speedvac (Savant, Thermo Scientific, Fisher Inc.) for 30 min to remove residual acetone. The resulting reaction volume was dissolved up to 1.2 mL using Milli-Q water and analyzed by HPLC (gradient below) to determine ligation yield by integration of separated peak intensities monitored at 325 nm. Collected HPLC fractions were characterized through MALDI MS analysis. […] Reactions using Phe-pdCpA as donor were carried out in an identical fashion (Ellman, et al., 1991, Methods Enzymol. 202:301-336).\nAll HPLC analyses of LysAlaAcm ligations were monitored on an Agilent HPLC using a Waters C18 column (Milford, Mass.).\nAll HPLC analyses of LysAlaAcm ligations were monitored as described elsewhere herein (Gradient 1).\nThe extent of transfer was evaluated by HPLC analysis of reactions with adenosyl donor, AaT or BpT, and an aminocoumarin-labeled reporter peptide (for AaT, LysAlaAcm was used as previously described by Tirrell and co-workers; for BpT, AspAlaAcm was used in an analogous fashion) (Connor et al., 2008, ChemBioChem 9:366-369). Monitoring LysAlaAcm or AspAlaAcm acylation in crude reaction mixtures using absorbance at 325 nm conveniently eliminates background due to other proteins and nucleic acids, although some non-natural amino acids such as naphthylalanine (Nap) and methoxycoumarinylalanine (Mcm) also absorb in this range.\nTo evaluate substrate scope, reactions were analyzed after 4 h, when transfer should be complete for the fully enzymatic reaction with Phe tRNA synthetase (Connor et al., 2008, ChemBioChem 9:366-369)."}, "[5]": {"target": "T2, E. coli aminoacyl transferase (AaT)", "experiment": "Real time fluorometric monitoring of Nap transfer from 4d to LysAlaAcm", "type": "biochemical", "set-up": "made in house; host or cells: E. coli BL21-Gold (DE3), plasmid pEG6, Ni-NTA purified", "conditions": "up to 1 mM exogenous adenosine, real time fluorescence", "description": "Real time fluorescent monitoring of Nap addition to LysAlaAcm was carried out using reaction solutions prepared on the 500 μL scale in stirred quartz cuvettes with 1.00 cm path lengths. Reagent concentrations were as described elsewhere herein, except that donor 4d was withheld until the cuvette was placed in the fluorometer and temperature equilibrated. Reactions were then initiated by addition of 20 μL of 25 mM Nap-A (4d) stock or water (for negative controls). Fluorescence emission at 390 nm was monitored after excitation at 325 nm. Prior calibration had shown that NapLysAlaAcm (5d) concentrations could be estimated from fluorescence intensity readings (F5d) using the equation [5d]=(1−(F5d/FControl))1.39[LysAlaAcm], where fControl is the fluorescence reading of the reaction with water added instead of 4d. […]\nIn order to monitor conversion of LysAlaAcm to NapLysAlaAcm (5d) in real time, a fluorometric assay was designed based on intramolecular quenching of aminocoumarin fluorescence by the naphthyl ring. Equimolar solutions of LysAlaAcm and NapLysAlaAcm, as well as mixtures of the two solutions, were prepared and their fluorescence was compared as depicted in FIG. 18A. […]\nThe present experiment was also achieved to monitor product formation in real time based on partial quenching of coumarin fluorescence upon addition of Nap to the LysAlaAcm peptide to form 5d. […]"}, "[6]": {"target": "T2, E. coli aminoacyl transferase (AaT)", "experiment": "A/AMP/ATP/pdCpA inhibition studies of ligation with Phe donor 4a", "type": "biochemical", "set-up": "made in house; host or cells: E. coli BL21-Gold (DE3), plasmid pEG6, Ni-NTA purified", "description": "Each ligation reaction was performed as described elsewhere herein.\nTo better understand limitations on the yield from AaT reactions, the possibilities of inhibition by hydrolyzed substrate or aminoacylated product were assessed. Since the acyl adenosine donor substrate is not regenerated during the reaction (unlike the aaRS/tRNA/AaT reaction), it was hypothesized that the adenosine byproduct might inhibit further acylation by binding to AaT. To investigate this possibility, adenosine was added to the reaction at varying concentrations and monitored the reaction timecourse by fluorescence spectroscopy and by HPLC."}, "[7]": {"conditions": "100 μM LysAlaAcm, 0.05 to 1 mM donor"}}, "note": "pKi: −log10 of the molar value. Where “and” joins values, the source holds several entries; their conditions need not be identical. Identical values can stand only once. Entries after “also recorded” stand apart in the source; their conditions may differ. Like-named read-outs stand apart in the source and are kept apart here."}
{"smiles": "Nc1ncnc2c1ncn2[C@@H]1O[C@H](CO)[C@@H](O)[C@H]1OC(=O)[C@@H](N)Cc1ccccc1", "note": "[4a, (S)-(2R,3R,4R,5R)-2-(6-Amino-9H-purin-9-yl)-4-hydroxy-5-(hydroxymethyl)tetrahydrofuran-3-2-amino-3-phenylpropanoate]", "values": [{"measurement": "Modification of α-casein N-terminus, Edman degradation", "setting": "[1]", "result": "quantitative addition of Phe"}, {"measurement": "Donor hydrolysis", "setting": "[2]", "result": "completely hydrolyzed"}, {"measurement": "Km", "setting": "[3]; [7]", "result": 124, "unit": "µM"}, {"measurement": "kcat", "setting": "[3]; [7]", "result": "1.68±0.09×10^−1 s^−1"}, {"measurement": "Km", "setting": "[3]; restated in μM", "result": 124, "unit": "µM"}, {"measurement": "Transfer to LysAlaAcm by AaT (in words)", "setting": "[4]; reactions analyzed after 4 h", "result": "transferred efficiently"}, {"measurement": "Conversion of LysAlaAcm after a second addition of donor", "setting": "[4]; second addition of 1 mM 4a", "result": "completion"}, {"measurement": "Ligated Product Yield (%)", "setting": "[4]; single addition of 1 mM donor, 100 μM LysAlaAcm, 2.26 μM AaT, 37° C., no additive", "result": "92% and 92.7 ± 5.2%"}, {"measurement": "Ligated Product Yield (%)", "setting": "[4]; single addition of donor, additive 1 mM pdCpA", "result": "90.4 ± 0.9", "unit": "%"}]}
{"smiles": "Nc1ncnc2c1ncn2[C@@H]1O[C@H](CO)[C@@H](O)[C@H]1O", "note": "[adenosine]", "values": [{"measurement": "Inhibition of Nap transfer to LysAlaAcm from 4d", "setting": "[5]", "result": "did not significantly inhibit; also recorded: No significant inhibition"}, {"measurement": "Inhibition of addition from the Phe donor 4a", "setting": "[6]; 5 mM added", "result": "not inhibited"}, {"measurement": "pKi", "setting": "[6]; Phe donor 4a transfer reaction", "result": "< 2.30"}]}
